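Assay format: 96-well plates, 48-hour exposure. GI50 = concentration required for 50% inhibition of growth.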 Activity calls are given as the source filed them. Rule as the data show it: active = GI50 up to about 1.1 µM and inactive = higher.
Columns and labels:
Test in all cases: inhibition of tumour cell growth, NCI panel, 48 h
[1] = system: UACC-62
[2] = system: U-251
[3] = system: SK-MEL-28
[4] = system: SNB-19
[5] = system: UO-31
[6] = system: K562
[7] = system: M14
[8] = system: RXF 393
[9] = system: PC-3
[10] = system: SNB-75
[11] = system: NCI-H460
[12] = system: SK-MEL-5
[13] = system: LOX IMVI
[14] = system: OVCAR-3
[15] = system: SK-MEL-2
[16] = system: NCI/ADR-RES
[17] = system: COLO 205
[18] = system: HT-29
[19] = system: SF-539

Measured: GI50

CN(C)C(=O)C(F)(F)C(c1ccccc1)C1C(=O)N(C)C(=O)N(C)C1=O (centres undefined)
inactive: [1] > 100 µM | [2] > 100 µM | [3] > 100 µM | [4] > 100 µM | [5] > 100 µM | [6] > 100 µM | [7] > 100 µM | [8] > 100 µM | [9] > 100 µM | [10] > 100 µM | [11] > 100 µM | [12] > 100 µM | [13] > 100 µM | [14] > 100 µM | [15] > 100 µM | [16] > 100 µM | [17] > 100 µM

CN1C(=O)C2(C=CC(O)CC2)c2ccccc21 (centres undefined)
inactive: [1] > 100 µM | [2] > 100 µM | [3] > 100 µM | [4] > 100 µM | [5] > 100 µM | [6] > 100 µM | [7] > 100 µM | [18] > 100 µM | [9] > 100 µM | [10] > 100 µM | [11] > 100 µM | [12] > 100 µM | [13] > 100 µM | [14] > 100 µM | [15] > 100 µM | [16] > 100 µM | [17] > 100 µM

COC(=O)/C(=N\N)C(C(=O)C(=O)Nc1nnc(S)[nH]1)c1nc2ccc([N+](=O)[O-])cc2nc1O (centres undefined)
inactive: [1] > 100 µM | [2] > 100 µM | [19] > 100 µM | [3] > 100 µM | [4] > 100 µM | [5] > 100 µM | [6] > 100 µM | [7] > 100 µM | [18] > 100 µM | [8] > 100 µM | [10] > 100 µM | [11] > 100 µM | [12] > 100 µM | [13] > 100 µM | [14] > 100 µM | [15] > 100 µM | [17] > 100 µM

C=CC1(CCC(Br)C(C)(C)Cl)CO1 (centres undefined)
inactive: [2] > 10 µM | [19] > 10 µM | [3] > 10 µM | [4] > 10 µM | [5] > 10 µM | [6] > 10 µM | [7] > 10 µM | [18] > 10 µM | [9] > 10 µM | [10] > 10 µM | [11] > 10 µM | [12] > 10 µM | [14] > 10 µM | [15] > 10 µM | [16] > 10 µM | [17] > 10 µM

CO[C@@H]1C=C[C@@]23c4cc5c(cc4C(=O)O[C@H]2CN(C)[C@H]3C1)OCO5
inactive: [1] > 100 µM | [2] > 100 µM | [19] > 100 µM | [3] > 100 µM | [4] > 100 µM | [5] > 100 µM | [6] > 100 µM | [7] > 100 µM | [18] > 100 µM | [8] > 100 µM | [10] 81.7 µM | [11] > 100 µM | [12] > 100 µM | [13] > 100 µM | [14] > 100 µM | [15] > 100 µM | [17] > 100 µM

O=C1CC(Cc2n[nH]c3c2CCCC3)CC(=O)N1
inactive: [1] > 100 µM | [2] > 100 µM | [19] > 100 µM | [3] > 100 µM | [6] > 100 µM | [7] > 100 µM | [18] > 100 µM | [8] > 100 µM | [9] > 100 µM | [10] > 100 µM | [12] > 100 µM | [13] > 100 µM | [14] > 100 µM | [15] > 100 µM | [16] > 100 µM | [17] > 100 µM

CCOc1ccccc1NC(=O)C(=O)C(C(=O)c1ccc2ccccc2c1)C1OC(=O)c2ccccc21 (centres undefined)
inactive: [1] 8.77 µM | [2] 6.64 µM | [19] 7.08 µM | [3] 10.4 µM | [4] 4.53 µM | [5] 12.7 µM | [6] 17.1 µM | [7] 15.9 µM | [18] 28.6 µM | [8] 2.26 µM | [10] 8.77 µM | [11] 6.68 µM | [12] 10.6 µM | [13] 12.5 µM | [14] 12.7 µM | [15] 13.2 µM | [17] 14.8 µM

COc1ccccc1OCC(COC(=O)Nc1ccc(C)cc1)OC(=O)Nc1ccc(C)cc1 (centres undefined)
inactive: [1] 15.3 µM | [2] 13.8 µM | [19] 19.1 µM | [3] 23.7 µM | [4] 18.7 µM | [5] 17.2 µM | [6] 18.5 µM | [7] 19.2 µM | [18] 19.2 µM | [8] 7.19 µM | [10] 23 µM | [11] 16.7 µM | [12] 20.7 µM | [13] 15.8 µM | [14] 17.3 µM | [15] 13.8 µM | [17] 18.2 µM

From ChEMBL document CHEMBL1201862, “PubChem BioAssay data set” (2004)
